Test results reported in publication PMC10674446, “Synthesis and Structural Characterization of Novel Dimers of Dipyridothiazine as Promising Antiproliferative Agents” (Molecules, 2023).
Read-outs that look alike come from different tables or passages of the source.

Assays:
[1] = tested on: normal L6 rat myoblasts; test: MTT cell viability assay, normal L6 cells; type: cell-based; settings: Rattus norvegicus, Myoblast, mean ± SD, n = 3, read-out: Anticancer Activity IC50, L6
Method: (§1) MCF7, SW480 and normal L6 muscle cells were bought from the ATCC company, USA [34]. MCF7 and SW480 adenocarcinoma cell lines were cultured, respectively, using Dulbecco’s Modified Eagle Medium (DMEM with 4.5 g/L glucose; HIMEDIA, Mumbai, India) supplemented with 100 U/mL penicillin, 100 µg/mL of streptomycin and 10% fetal bovine serum (FBS; Cat No. FBSEU500; Tico Europe, Amstelveen, The Netherlands) under standard conditions until the desired confluency was reached. Once the desired cell confluency of 70–80% was observed, the cells were sub-cultured through trypsinization, and the cell count was calculated prior to seeding in the 96-well microplate. Similarly, L6 rat myoblasts were cultured accordingly as normal cell lines to compare against MCF7 and SW480 cell lines during the MTT cell viability assay.
(§2) Cells were seeded in a 96-well microplate at a density of 1 × 10^4 cells per well and were allowed to adhere to the wells overnight. Subsequently, the cells were treated with varying concentrations of 12 compounds (1a,b,c–4a,b,c) along with doxorubicin as the positive control. The cells were exposed to the tested substances at concentrations ranging from 50, 25, 10, 5 and 1 μM. The treatment was conducted over three periods of 24 h, 48 h and 72 h, respectively. After the treatment period, thiazolyl blue tetrazolium bromide (MTT) solution was added to each well at a concentration of 0.5 mg/mL and incubated for 3 h in a 37 °C incubator supplemented with 5% CO2. Lastly, the spent MTT medium was removed and DMSO was added to the wells, where the purple formazan crystals were solubilized, and the intensity of the purple hue was spectrophotometrically measured at 570 nm.
(§3) All values were represented as means ± standard deviations (n = 3). The data were statistically analyzed using GraphPad Prism 10.1.0, where the IC50 values of each compound treated on different cell lines at different time points were obtained by extrapolating the logarithmic dose–response curve. The IC50 values were further subjected to one-way ANOVA analysis along with the post hoc test to determine the statistical significance between the treatment groups and the negative control (untreated cells).

[2] = tested on: MCF7 and SW480 cancer cells; test: MTT cell viability assay, both cancer cell lines; type: cell-based, human
Method: as §1, §2, §3

[3] = tested on: SW480 colon cancer; test: MTT cell viability assay, SW480; type: cell-based, human; settings: for Selectivity Index (SI), SW480: SI = IC50 L6 / IC50 SW480; for IC50: Homo sapiens, SW480, mean ± SD, n = 3, read-out: Anticancer Activity IC50, SW480
Method: as §1
(§4) Cells were seeded in a 96-well microplate at a density of 1 × 10^4 cells per well and were allowed to adhere to the wells overnight. […] The cells were exposed to the tested substances at concentrations ranging from 50, 25, 10, 5 and 1 μM. The treatment was conducted over three periods of 24 h, 48 h and 72 h, respectively. […] Lastly, the spent MTT medium was removed and DMSO was added to the wells, where the purple formazan crystals were solubilized, and the intensity of the purple hue was spectrophotometrically measured at 570 nm.
(§5) All values were represented as means ± standard deviations (n = 3). […] The IC50 values were further subjected to one-way ANOVA analysis along with the post hoc test to determine the statistical significance between the treatment groups and the negative control (untreated cells).

[4] = tested on: MCF7 breast cancer; test: MTT cell viability assay, MCF7; type: cell-based, human; settings: for Selectivity Index (SI), MCF-7: SI = IC50 L6 / IC50 MCF-7; for IC50: Homo sapiens, MCF7, mean ± SD, n = 3, read-out: Anticancer Activity IC50, MCF-7
Method: as §1, §4, §5

[5] = 72 h treatment period, NA = IC50 beyond the tested concentration range (1-50 µM)

| IC50 ([3]; 24 h treatment period) [µM] | IC50 ([3]; 48 h treatment period) [µM] | IC50 ([3]; 72 h treatment period) [µM] | melting point [°C] | IC50 ([4]; 24 h treatment period) [µM] | IC50 ([4]; 48 h treatment period) [µM] | IC50 [4, 5] [µM] | IC50 ([2]; Homo sapiens, MCF7 and SW480, span over 24, 48 and 72 h, read-out: IC50 range towards both cancer cell lines) [µM] | SMILES | IC50 ([1]; 24 h treatment period) [µM] | IC50 ([1]; 48 h treatment period) [µM] | IC50 ([1]; 72 h treatment period) [µM] | cytotoxicity towards MCF7 compared with SW480 (in words) ([2]; breast cancer cell line MCF7 versus colon cancer cell line SW480) | Selectivity Index (SI), SW480 ([3]; 24 h) | Selectivity Index (SI), SW480 ([3]; 48 h) | Selectivity Index (SI), SW480 ([3]; 72 h) | Selectivity Index (SI), MCF-7 ([4]; 24 h) | Selectivity Index (SI), MCF-7 ([4]; 48 h) | Selectivity Index (SI), MCF-7 ([4]; 72 h) | toxicity towards both MCF7 and SW480 cancer cells (in words) ([2]; 24, 48 and 72 h of incubation) |
| --- | --- | --- | --- | --- | --- | --- | --- | --- | --- | --- | --- | --- | --- | --- | --- | --- | --- | --- | --- |
| 17.2 ± 1.46 | 21.1 ± 0.99 | 15.9 ± 1.48 | 266 to 268 | 23.2 ± 0.33 | 10.02 ± 0.05 | 9.96 ± 0.03 |  | c1cc(CN2c3cnccc3Sc3cccnc32)nc(CN2c3cnccc3Sc3cccnc32)c1 [2c, 2,6-bis((dipyrido[3,2-b:3′,4′-e][1,4]thiazin-10-yl)methyl)pyridine] | 17.6 ± 0.85 | 19.23 ± 0.13 | 18 ± 0.18 | higher cytotoxicity | 1.02 | 0.91 | 1.12 | 0.76 | 1.91 | 1.80 |  |
| 0.67 | 3.97 ± 1.27 | 4.27 ± 0.19 | 245 to 247 | 5 ± 1.29 | 0.75 ± 1.85 | 1.14 ± 0.51 | 0.67 to 5 | c1cc(CN2c3cccnc3Sc3cccnc32)nc(CN2c3cccnc3Sc3cccnc32)c1 [1c, 2,6-bis((dipyrido[2,3-b:2′,3′-e][1,4]thiazin-10-yl)methyl)pyridine] | 11.3 ± 0.99 | 2.67 ± 2.13 | 6.82 ± 1.24 |  | 16.5 | 0.67 | 1.5 | 2.25 | 3.56 | 5.5 | significantly toxic |
